Several values for one entry are separate records, joined by “and”; a condition that tells them apart may be missing. Equal entries are not always repeated. Where two headings read alike, the source gives them in different places.
Assays:
Assay type in all cases: cell-based, human
[1] = test system: PBMC derived from naïve donors; assay: Cytokine secretion (quantitative ELISA) by PBMC from naïve donors; settings: for donors with positive (x>0.1 ng/ml) IL-4 secretion / donors with positive (x>0.1 ng/ml) IL-12 secretion / donors with positive (x>0.1 ng/ml) IL-2 secretion: 48 hrs stimulation, FIG. 7A
[2] = test system: naïve peripheral blood mononuclear cells (PBMC); assay: Proliferation ([3H] Thymidine) of PBMC from naïve donors stimulated with VXL tuberculosis vaccine candidates; settings: for proliferation in donors which also manifested response to PPD: PPD positive (SI≥2) naïve PBMC, FIG. 3B; for proliferation in donors which also manifested response to PPD / positive proliferation in donors which also manifested response to TT / SI and coverage in the total 11 donors / proliferation in PPD positive versus PPD negative donors: in words; for positive proliferation in donors which also manifested response to TT: TT positive (SI≥2) naïve PBMC, FIG. 3A; for SI and coverage in the total 11 donors: in comparison with the positive controls; for proliferation in PPD positive versus PPD negative donors: naïve PBMC, FIG. 4
[3] = test system: anti-VXL effector T-cell lines; assay: IFN-gamma released by effector T cell lines during the lysis process (ELISA)
[4] = test system: anti-VXL T cell lines after the 3rd stimulation; assay: Intra-cellular staining (ICS) FACS for IFN-gamma and IL-4 in T cell lines; settings: 6 h stimulation with peptide-loaded autologous macrophages, FIG. 15
[5] = test system: anti-VXL VCs T cell lines from naïve donors; assay: FACS phenotype of anti-VXL T cell lines (CD44high, CD62Lhigh); settings: FIG. 14; for CD44high activated effector cells in CD8+ / CD62Lhigh memory cells in CD8+: after the 3rd stimulation; for CD62Lhigh memory cells in CD4+ / CD44high activated effector cells in CD4+: already after the 1st stimulation
[6] = test system: autologous macrophages loaded with VXL VCs; assay: Cytotoxic activity of VXL-induced T cell lines against loaded autologous macrophages (35S Methionine); settings: T cell line induced by the peptide; in words
[7] = test system: autologous macrophages infected with live Mtb; settings: peptide-induced T cell lines from naïve donors and TB patients, FIG. 12; in words
[8] = donor #15 (FIG. 12B), naïve donor T cell line
[9] = patient #18 (FIG. 12D), Mtb patient T cell line

Sequence	donors with positive (x>0.1 ng/ml) IL-4 secretion [1]	donors with positive (x>0.1 ng/ml) IL-12 secretion [1]	proliferation in donors which also manifested response to PPD [2]	positive proliferation in donors which also manifested response to TT [2]	donors with positive (x>0.1 ng/ml) IL-2 secretion [1]	IFN-gamma detected [3, 8]	IFN-gamma detected [3, 9]	maximal percentage of specific IFN-gamma produced by CD8+ T-cells [4]	average SI [2]	SI and coverage in the total 11 donors [2]	proliferation in PPD positive versus PPD negative donors [2]	average SI ([2]; pure (>90%) peptide, naïve donors, FIG. 9A)	CD44high activated effector cells in CD8+ [5]	CD62Lhigh memory cells in CD8+ [5]	CD62Lhigh memory cells in CD4+ [5]	lysis against PPD-loaded targets [6]	lysis of Mtb infected macrophages [7]	IFN-gamma detected [3]	CD44high activated effector cells in CD4+ [5]	IL-4 secretion ([1]; in words)
MAAMWRRRPLSSALLSFGLLLGGLPLAAPPLAGA (listed as Mycobacterium tuberculosis) [VXL207, signal peptide of Protease, Tuberculosis]	25%	8.6%	–	–	–	–	–	–	–	–	–	–	–	–	–	–	–	–	–	–
MKIRLHTLLAVLTAAPLLLAAAGCGS [VXL200]	–	–	stronger	to some extent	25%	–	–	–	–	–	–	–	–	–	–	–	–	–	–	–
MKRGLTVAVAGAAILVAGLSGCSS [VXL203]	–	8.6%	–	to some extent	–	3.8 µg/mL	11 µg/mL	8.2%	1.8+/−0.8	to some extent	more potent in donors which were not exposed in the past to the tuberculosis Bactria	5.7+/−6.8	79%	17%	39%	specific lysis	high and specific lysis	–	–	–
MKTGTATTRRRLLAVLIALALPGAAVA (listed as Mycobacterium tuberculosis) [VXL206, signal peptide of Hypothetical protein MT0 213, Tuberculosis]	–	8.6%	–	–	–	–	–	–	–	–	–	–	–	–	–	–	–	–	–	–
MLLRKGTVYVLVIRADLVNAMVAHA (listed as Mycobacterium tuberculosis) [VXL212, signal peptide of Uncharacterized protein Rv1334/MT1376 precursor, Tuberculosis]	–	58.3%	stronger	more positive	–	–	7.5 µg/mL	–	–	highest SI and widest coverage	even stronger in donors with previous exposure to the tuberculosis Bactria	–	–	–	–	–	lower lysis levels	5.6 µg/mL and 3.6 µg/mL	–	–
MLVLLVAVLVTAVYAFVHA (listed as Mycobacterium tuberculosis) [VXL211, signal peptide of Uncharacterized protein Rv0476/MT04941 precursor, Tuberculosis]	–	58.3%	stronger	more positive	91.6%	5.9 µg/mL	–	10.6%	–	highest SI and widest coverage	even stronger in donors with previous exposure to the tuberculosis Bactria	–	80%	40.9%	–	specific lysis	moderate lysis	9.2 µg/mL and 7.8 µg/mL	41%	–
MRFAQPSALSRFSALTRDWFTSTFAAPTAAQA (listed as Mycobacterium tuberculosis) [VXL208, signal peptide of ATP dependent helicase putative, Tuberculosis]	25%	–	stronger	more positive	–	3.6 µg/mL	–	–	–	highest SI and widest coverage	even stronger in donors with previous exposure to the tuberculosis Bactria	–	50.2%	32.1%	22%	–	lower lysis levels	2.6 µg/mL	52%	some secretion of IL-4
MRPSRYAPLLCAMVLALAWLSAVAG (listed as Mycobacterium tuberculosis) [VXL214, signal peptide of Putative lipoprotein IpqV precursor, Tuberculosis]	–	–	–	to some extent	–	–	–	–	–	–	–	–	–	–	–	–	–	–	–	–
MTDVSRKIRAWGRRLMIGTAAAVVLPGLVGLAGGAATAGA (listed as Mycobacterium tuberculosis) [VXL201, signal peptide of Antigen 85B, Tuberculosis]	–	–	stronger	more positive	–	–	14 µg/mL	–	–	highest SI and widest coverage	even stronger in donors with previous exposure to the tuberculosis Bactria	–	–	–	–	–	high and specific lysis	6 µg/mL and 10 µg/mL and 11.3 µg/mL	–	–
